Data taken from patent US4454140A, “Nasal administration of dextromethorphan” (Hoffmann-La Roche Inc., priority 1982, dated 1984).
Where “and” joins values, the source holds several entries; their conditions need not be identical. Equal entries are not always repeated. Where two headings read alike, the source gives them in different places.

Assay: bioavailability of dextromethorphan after nasal, oral and intravenous administration (plasma levels, spectrofluorophotometric)
Assay type: in vivo, female beagle dogs
Conditions: for AUC(0-t) at 2 h / concentration at 1 min / concentration at 0.05 h / concentration at 0.1 h / concentration at 0.2 h / concentration at 20 min / concentration at 35 min / concentration at 55 min / concentration at 80 min / concentration at 2 h / bioavailability at 2 h / concentration at 3 h: dog, plasma, 15 mg; for AUC(0-t) at 2 h / AUC 0-120 min., Individual AUC: 15 mg/dog; for concentration at 1 min / concentration at 0.05 h / concentration at 0.1 h / concentration at 0.2 h / concentration at 20 min / concentration at 35 min / concentration at 55 min / concentration at 80 min / concentration at 2 h / concentration at 3 h / Plasma Concentration: HBr salt 15 mg/dog; for bioavailability at 2 h: relative to intravenous, 0-120 min
Protocol: The following study was undertaken to determine the bioavailability of dextromethorphan from nasal solution in comparison with the bioavailability of the drug when administered orally and intravenously.
Three female beagle dogs weighing about 10 kg each were used for the study without fasting. For nasal administration, the dogs were anaesthetized with an intravenous injection of 30 mg/kg of sodium pentobarbital, and 0.5 ml of a warm saline solution containing dextromethorphan (30 mg/ml) was then administered to the nasal cavity through the nostrils with a syringe. For oral administration, the dogs were not anaesthetized and 10 ml of a saline solution containing dextromethorphan hydrobromide (1.5 mg/ml) was administered via a stomach tube. For intravenous administration, the dogs were anaesthetized as noted above, and one ml of a saline solution containing dextromethorphan hydrobromide (15 mg/ml) was injected through the cubital vein.
After nasal, oral, and intravenous administration, blood was sampled from the cubital vein periodically. The blood sample, was centrifuged and 2.5 ml of plasma were analyzed. Plasma levels of dextromethorphan were determined spectrofluorophotometrically by a modification of the method of Ramachander, et al., J. Pharm. Sci., 66, 1047 (1977). Specifically, plasma was transferred into a glass tube, 0.5 ml of a saturated solution of sodium carbonate and 10 ml of ethyl acetate were added, and the contents shaken well. After centrifuging, an aliquot (8 ml) of the supernate was transferred into a glass tube containing 1.5 ml of 1.0N HCl, and was extracted into the acid layer after mixing well and centrifuging. The fluorescence of the acid layer was determined by a spectrofluorophotometer, Aminco-Bowman Ratio II, American Instrument Co. The excitation and emission wave lengths were 278 nm and 306 nm, respectively. Recovery of known amounts of dextromethorphan spiked with dog plasma was 50% of the added concentration. For calculating the drug plasma level, the above correction factor was taken into consideration.
Table I reports the plasma concentration of dextromethorphan after nasal, intravenous, and oral administration of 15 mg/dog of dextromethorphan hydrobromide salt.

COc1ccc2c(c1)[C@]13CCCC[C@@H]1[C@H](C2)N(C)CC3 [dextromethorphan, d-3-methoxy-N-methylmorphinan]
AUC(0-t) at 2 h (nasal, average of three dogs, read-out: AUC 0-120 min., Average ± S.E. (converted)): 472 ng·h/mL | concentration at 1 min (nasal, dog #1, 1 min): 72.1 ng/mL | concentration at 0.05 h (nasal, dog #1, 3 min): 323 ng/mL | concentration at 0.1 h (nasal, dog #1, 6 min): 618 ng/mL | concentration at 0.2 h (nasal, dog #1, 12 min): 684 ng/mL | concentration at 20 min (nasal, dog #1, 20 min): 503 ng/mL | concentration at 35 min (nasal, dog #1, 35 min): 276 ng/mL | concentration at 55 min (nasal, dog #1, 55 min): 240 ng/mL | concentration at 80 min (nasal, dog #1, 80 min): 201 ng/mL | concentration at 2 h (nasal, dog #1, 120 min): 154 ng/mL | concentration at 1 min (nasal, dog #2, 1 min): 89.1 ng/mL | concentration at 0.05 h (nasal, dog #2, 3 min): 793 ng/mL | concentration at 0.1 h (nasal, dog #2, 6 min): 733 ng/mL | concentration at 0.2 h (nasal, dog #2, 12 min): 888 ng/mL | concentration at 20 min (nasal, dog #2, 20 min): 260 ng/mL | concentration at 35 min (nasal, dog #2, 35 min): 201 ng/mL | concentration at 55 min (nasal, dog #2, 55 min): 170 ng/mL | concentration at 80 min (nasal, dog #2, 80 min): 183 ng/mL | concentration at 2 h (nasal, dog #2, 120 min): 141 ng/mL | concentration at 1 min (nasal, dog #3, 1 min): 84.2 ng/mL | concentration at 0.05 h (nasal, dog #3, 3 min): 428 ng/mL | concentration at 0.1 h (nasal, dog #3, 6 min): 493 ng/mL | concentration at 0.2 h (nasal, dog #3, 12 min): 385 ng/mL | concentration at 20 min (nasal, dog #3, 20 min): 263 ng/mL | concentration at 35 min (nasal, dog #3, 35 min): 165 ng/mL | concentration at 55 min (nasal, dog #3, 55 min): 129 ng/mL | concentration at 80 min (nasal, dog #3, 80 min): 93.3 ng/mL | concentration at 2 h (nasal, dog #3, 120 min): 108 ng/mL | AUC(0-t) at 2 h (nasal, individual dogs, read-out: AUC 0-120 min., Individual AUC (converted)): 568 ng·h/mL | bioavailability at 2 h (nasal): 110% | bioavailability at 2 h (oral): 30.2% | concentration at 1 min (iv, dog #1, 1 min): 1530 ng/mL | concentration at 0.05 h (iv, dog #1, 3 min): 927 ng/mL | concentration at 0.1 h (iv, dog #1, 6 min): 708 ng/mL | concentration at 0.2 h (iv, dog #1, 12 min): 482 ng/mL | concentration at 20 min (iv, dog #1, 20 min): 331 ng/mL | concentration at 35 min (iv, dog #1, 35 min): 296 ng/mL | concentration at 55 min (iv, dog #1, 55 min): 171 ng/mL | concentration at 80 min (iv, dog #1, 80 min): 134 ng/mL | concentration at 2 h (iv, dog #1, 120 min): 144 ng/mL | concentration at 1 min (iv, dog #2, 1 min): 1590 ng/mL | concentration at 0.05 h (iv, dog #2, 3 min): 952 ng/mL | concentration at 0.1 h (iv, dog #2, 6 min): 532 ng/mL | concentration at 0.2 h (iv, dog #2, 12 min): 349 ng/mL | concentration at 20 min (iv, dog #2, 20 min): 229 ng/mL | concentration at 35 min (iv, dog #2, 35 min): 166 ng/mL | concentration at 55 min (iv, dog #2, 55 min): 146 ng/mL | concentration at 80 min (iv, dog #2, 80 min): 165 ng/mL | concentration at 2 h (iv, dog #2, 120 min): 141 ng/mL | concentration at 1 min (iv, dog #3, 1 min): 1490 ng/mL | concentration at 0.05 h (iv, dog #3, 3 min): 907 ng/mL | concentration at 0.1 h (iv, dog #3, 6 min): 430 ng/mL | concentration at 0.2 h (iv, dog #3, 12 min): 322 ng/mL | concentration at 20 min (iv, dog #3, 20 min): 187 ng/mL | concentration at 35 min (iv, dog #3, 35 min): 102 ng/mL | concentration at 55 min (iv, dog #3, 55 min): 81.4 ng/mL | concentration at 80 min (iv, dog #3, 80 min): 46.2 ng/mL | concentration at 2 h (iv, dog #3, 120 min): 37.3 ng/mL | AUC(0-t) at 2 h (iv, intravenous, average of three dogs, read-out: AUC 0-120 min., Average ± S.E. (converted)): 431 ng·h/mL | AUC(0-t) at 2 h (iv, intravenous, individual dogs, read-out: AUC 0-120 min., Individual AUC (converted)): 537 ng·h/mL | concentration at 20 min (po, dog #1, 20 min): 7.5 ng/mL | concentration at 35 min (po, dog #1, 35 min): 43.4 ng/mL | concentration at 55 min (po, dog #1, 55 min): 73.6 ng/mL | concentration at 80 min (po, dog #1, 80 min): 80.1 ng/mL | concentration at 2 h (po, dog #1, 120 min): 74.7 ng/mL | concentration at 3 h (po, dog #1, 180 min): 63.3 ng/mL | concentration at 0.1 h (po, dog #2, 6 min): 18.5 ng/mL | concentration at 0.2 h (po, dog #2, 12 min): 40 ng/mL | concentration at 20 min (po, dog #2, 20 min): 62.9 ng/mL | concentration at 35 min (po, dog #2, 35 min): 94.4 ng/mL | concentration at 55 min (po, dog #2, 55 min): 92.3 ng/mL | concentration at 80 min (po, dog #2, 80 min): 86.8 ng/mL | concentration at 2 h (po, dog #2, 120 min): 86 ng/mL | concentration at 3 h (po, dog #2, 180 min): 85.7 ng/mL | concentration at 20 min (po, dog #3, 20 min): 18.4 ng/mL | concentration at 35 min (po, dog #3, 35 min): 47.6 ng/mL | concentration at 55 min (po, dog #3, 55 min): 65 ng/mL | concentration at 80 min (po, dog #3, 80 min): 95.5 ng/mL | concentration at 2 h (po, dog #3, 120 min): 91.5 ng/mL | concentration at 3 h (po, dog #3, 180 min): 53.4 ng/mL | AUC(0-t) at 2 h (po, oral, average of three dogs, read-out: AUC 0-120 min., Average ± S.E. (converted)): 130 ng·h/mL | AUC(0-t) at 2 h (po, oral, individual dogs, read-out: AUC 0-120 min., Individual AUC (converted)): 110 ng·h/mL | AUC 0-120 min., Individual AUC (intravenous, individual dogs): 27597.7 ng eq. ml-^1 min and 17668.5 ng eq. ml-^1 min | absorption after nasal administration vs standard oral route (nasal vs oral): more rapid and more complete absorption | blood level after nasal administration (nasal, 15 mg dose, about 5 minutes to about 2 hours, vs injected dose (FIG. 1)): blood levels comparable to an injected dose | AUC 0-120 min., Individual AUC (nasal, individual dogs): 30735.4 ng eq. ml-^1 min and 20139.0 ng eq. ml-^1 min | Plasma Concentration (oral, dog #1, 1 min): 0 ng eq./ml | Plasma Concentration (oral, dog #1, 3 min): 0 ng eq./ml | Plasma Concentration (oral, dog #1, 6 min): 0 ng eq./ml | Plasma Concentration (oral, dog #1, 12 min): 0 ng eq./ml | Plasma Concentration (oral, dog #2, 1 min): 0 ng eq./ml | Plasma Concentration (oral, dog #2, 3 min): 0 ng eq./ml | Plasma Concentration (oral, dog #3, 1 min): 0 ng eq./ml | Plasma Concentration (oral, dog #3, 3 min): 0 ng eq./ml | Plasma Concentration (oral, dog #3, 6 min): 0 ng eq./ml | Plasma Concentration (oral, dog #3, 12 min): 0 ng eq./ml | AUC 0-120 min., Individual AUC (oral, individual dogs): 9356.5 ng eq. ml-^1 min and 7441.6 ng eq. ml-^1 min | blood level after oral administration (oral, same dosage level (15 mg), FIG. 1): considerably lower blood levels
